The source made the active and inactive calls. The calls are words filed in the database; no cut-off is given here.
What was measured:
Assay type in all cases: functional, cell-based
[1] = test system: MCF7; assay: Cytotoxicity against human MCF7 cells assessed as reduction in cell viability up to 40 uM after 48 hrs by MTT assay
[2] = test system: SMMC-7721; assay: Cytotoxicity against human SMMC7721 cells assessed as reduction in cell viability up to 40 uM after 48 hrs by MTT assay
[3] = test system: A549; assay: Cytotoxicity against human A549 cells assessed as reduction in cell viability up to 40 uM after 48 hrs by MTT assay
[4] = test system: RAW264.7; assay: Inhibition of NO production in mouse RAW264.7 macrophages at 40 uM incubated for 18 hrs by Griess reagent based assay
[5] = test system: SW480; assay: Cytotoxicity against human SW480 cells assessed as reduction in cell viability up to 40 uM after 48 hrs by MTT assay
[6] = test system: HL-60; assay: Cytotoxicity against human HL60 cells assessed as reduction in cell viability up to 40 uM after 48 hrs by MTT assay
[7] = test system: MCF7; assay: Cytotoxicity against human MCF7 cells assessed as reduction in cell viability at 40 uM after 48 hrs by MTT assay
[8] = test system: SW480; assay: Cytotoxicity against human SW480 cells assessed as reduction in cell viability at 40 uM after 48 hrs by MTT assay
[9] = test system: SMMC-7721; assay: Cytotoxicity against human SMMC7721 cells assessed as reduction in cell viability at 40 uM after 48 hrs by MTT assay
[10] = test system: A549; assay: Cytotoxicity against human A549 cells assessed as reduction in cell viability at 40 uM after 48 hrs by MTT assay
[11] = test system: HL-60; assay: Cytotoxicity against human HL60 cells assessed as reduction in cell viability at 40 uM after 48 hrs by MTT assay
[12] = test system: B-cell line; assay: Immunosuppressive activity in BALB/c mouse B cells assessed as inhibition of LPS-induced cell proliferation by measuring reduction in uptake of [3H]-thymidine after 8 hrs by beta scintillation counting method
[13] = test system: RAW264.7; assay: Inhibition of NO production in mouse RAW264.7 macrophages incubated for 18 hrs by Griess reagent based assay; conditions: RAW264.7, 18 h
[14] = test system: T-cell; assay: Immunosuppressive activity in BALB/c mouse T cells assessed as inhibition of ConA-induced cell proliferation by measuring reduction in uptake of [3H]-thymidine after 8 hrs by beta scintillation counting method

IC50 [13] | SMILES | Activity [1] | Activity [2] | Activity [3] | inhibition [4] | Activity [5] | Activity [6] | Activity [7] | Activity [8] | Activity [9] | Activity [10] | Activity [11] | IC50 [12] | IC50 [14]
 | C[C@@H]1C[C@H](O)C2=C(COC2=O)C2=CC(C)(C)C[C@@H]21 | Active | Active | Active | inactive | Active | Active |  |  |  |  |  |  | 
 | Cc1ccc2c(c1)[C@H](C)C[C@H](O)[C@@H]1C(=O)OC[C@@H]21 |  |  |  | inactive |  |  | inactive | inactive | inactive | inactive | inactive | 22.4 µM | 
 | C[C@H]1[C@H]2CC(C)(C)C[C@@H]2C2=C(C[C@@H]1O)C(=O)OC2 |  |  |  | inactive |  |  | inactive | inactive | inactive | inactive | inactive |  | 
 | C[C@H]1CCC2=C(COC2=O)[C@@H]2CC(C)(C)[C@H](O)[C@@H]12 | Active | Active | Active | inactive | Active | Active |  |  |  |  |  |  | 
 | C[C@H]1CCC2=C(COC2=O)[C@@]2(O)CC(C)(C)C[C@@H]12 | Active | Active | Active | inactive | Active | Active |  |  |  |  |  |  | 
 | C[C@H]1C[C@@H](O)C2=C(COC2=O)[C@@H]2CC(C)(C)C[C@@H]12 |  |  |  | inactive |  |  | inactive | inactive | inactive | inactive | inactive |  | 
 | C[C@@H]1C[C@H](O)C2=C(COC2=O)[C@]23O[C@H]2C(C)(C)C[C@]13O |  |  |  | inactive |  |  | inactive | inactive | inactive | inactive | inactive |  | 
22.7 µM | C[C@@H]1CC[C@H]2C(C(=O)O)=C[C@@H]3C[C@@](C)(C(=O)O)C[C@@]132 |  |  |  |  |  |  | inactive | inactive | inactive | inactive | inactive |  | 
 | Cc1cc2c(cc1O)C1=C(CC[C@H]2C)C(=O)OC1 |  |  |  | inactive |  |  | inactive | inactive | inactive | inactive | inactive | 13.6 µM | 16.7 µM
 | C[C@@H]1C[C@H](O)C2=C(COC2=O)[C@]23O[C@H]2C(C)(C)C[C@H]13 |  |  |  | inactive |  |  | inactive | inactive | inactive | inactive | inactive |  | 
 | C[C@@H]1C[C@H](O)C2=C(COC2=O)C2=C[C@](C)(CO)C[C@@H]21 | Active | Active | Active | inactive | Active | Active |  |  |  |  |  |  | 
